We go through four compounds from patent US20250152556A1, “ETRASIMOD FOR USE IN TREATING S1P1 RECEPTOR-ASSOCIATED DISORDERS IN COMBINATION WITH HORMONE TREATMENT” (Arena Pharmaceuticals, Inc., priority 2022, published 2025).

The conditions of data set [1]: cited from earlier work.
Data set [2] is described as follows: Phase 1 study: steady-state PK of Study Drug co-administered with OC. The data set is classed as in vivo, human. Particulars: Day 49, Period 2, Study Drug 2 mg qd + OC; compared with Study Drug given alone in previous studies. The text has this: (§1) Secondary objectives of the study were: • To assess the concentrations of follicle stimulating hormone (FSH), luteinizing hormone (LH), estradiol, and progesterone during and after dosing with the monophasic OC alone and when co-administered with Study Drug in healthy premenopausal female subjects. • To evaluate transvaginal ultrasound (TVUS) and Hoogland scores on Days 1 and 11±1 in Period 1 and Period 2 in healthy premenopausal female subjects. • To evaluate sex hormone binding globulin (SHBG) concentrations on Days 1 and 21 in Period 1 and Period 2 in healthy premenopausal female subjects. • To evaluate the steady-state PK of Study Drug when co-administered with the monophasic OC in healthy premenopausal female subjects. • To assess complete blood count (CBC) including differential, absolute lymphocyte count lowering from baseline, and platelet count upon administration of monophasic OC alone and when co-administered with Study Drug in healthy premenopausal female subjects. • To evaluate the safety and tolerability of Study Drug when co-administered with the monophasic OC in healthy premenopausal female subjects.
All subjects were co-administered Study Drug 2 mg qd with OC for 21 days (Days 29 to 49; test treatment), followed by a 7-day dose-free period (Days 50 to 56). On Days 49 to 50, subjects underwent assessments for PK of Study Drug and OC. […]

The subject of data set [3] is ovarian activity. As to the kind of experiment: Phase 1 study: PD markers of ovarian activity (FSH, LH, estradiol, progesterone, SHBG, TVUS/Hoogland score). The data set is classed as in vivo, human. Particulars: Study Drug 2 mg qd with OC.
Description: as §1
On Day 1, baseline CBC, FSH, LH, estradiol, progesterone, TVUS, and SHBG were obtained, and then subjects received OC dosing. The TVUS were performed on Day −1 or Day 1. The OC PK was done on Days 21 to 22. […]

Data set [4] deals with lymphocyte counts. Kind of data set: Phase 1 study: lymphocyte counts (CBC). It counts as in vivo, human.
Description: as §1
Subjects were administered 2 mg Study Drug, specifically, the L-arginine salt of Compound 1, i.e., Compound 2, qd on Days 23 to 28. […]

Data set [5] is described as follows: Phase 1 study: safety and tolerability (AEs, 12-lead ECG, Holter, laboratory, vital signs). The data set is classed as in vivo, human. How it is done:
Subjects were administered 2 mg Study Drug, specifically, the L-arginine salt of Compound 1, i.e., Compound 2, qd on Days 23 to 28. Subjects were fitted with a Holter monitor and 24-hour continuous electrocardiogram (ECG) recording was performed starting before the Study Drug dose on Day 23 of Period 1 until Day 24 of Period 1.
All subjects were co-administered Study Drug 2 mg qd with OC for 21 days (Days 29 to 49; test treatment), followed by a 7-day dose-free period (Days 50 to 56). On Days 49 to 50, subjects underwent assessments for PK of Study Drug and OC. Further PD assessments and safety evaluations were performed as described in the schedules of assessments and procedures. Subjects were fitted with a Holter monitor and 24-hour continuous ECG recording was performed starting before the Study Drug dose on Day 49 of Period 2 until Day 50 of Period 2.
Subject safety and tolerability were monitored during the study using standard measures, including adverse event (AE) monitoring, orthostatic vital signs, 12-lead ECGs, continuous ECG recordings (Holter), clinical laboratory evaluations, physical examinations, and concomitant medication usage.
• Evaluations of AEs, orthostatic vital signs, 12-lead ECGs, continuous ECG recording (Holter), clinical laboratory evaluations, physical examinations, concomitant medications

Details of data set [6]: species or system human. Particulars: in vivo. How it is done:
A phase 1, open-label, repeat-dose, two-way, single-sequence study was conducted to evaluate the effect of Compound 1, or a pharmaceutically acceptable salt, hydrate, or solvate thereof, (“Study Drug”) on the pharmacokinetics and pharmacodynamics of a monophasic oral contraceptive (OC) in healthy premenopausal female subjects.
The primary objective of the study was to evaluate the pharmacokinetics (PK) of a monophasic OC (30 μg ethinylestradiol [EE] and 150 μg levonorgestrel [LVG]) alone and when co-administered with repeated doses of Study Drug in healthy premenopausal female subjects.
All subjects received monophasic OC once daily (qd) for 21 days (Days 1 to 21; reference treatment) followed by a 7-day OC dose-free period (Days 22 to 28). […]
Blood samples for plasma PK evaluation of EE, LVG, and Study Drug were collected. The following PK parameters were determined for EE, LVG, and/or Study Drug and, if warranted, metabolites thereof. • Cmax,ss maximum plasma concentration at steady-state • Cmin,ss plasma concentration at 24-hours postdose at steady-state • Tmax,ss time to Cmax at steady-state • AUCtau,ss area under the plasma concentration-time curve (AUC) during the dosing interval (tau) at steady-state • CLSS/F Apparent plasma clearance of drug after extravascular administration at steady-state

The mark [7] stands for this setting: after the first dose (Day 23), 2 mg.
Setting [8] is: repeat dosing at steady-state (Day 49), 2 mg qd.

With `O=C(O)C[C@H]1CCc2c1[nH]c1ccc(OCc3ccc(C4CCCC4)c(C(F)(F)F)c3)cc21` [Compound 1, (R)-2-(7-(4-cyclopentyl-3-(trifluoromethyl)benzyloxy)-1,2,3,4-tetrahydrocyclopenta[b]indol-3-yl)acetic acid], the “endoscopic and symptomatic improvements versus placebo” value in data set [1] (Phase 2, ulcerative colitis patients, 2 mg QD for 12 weeks) was “clinically meaningful and statistically significant”. Also, the “safety and tolerability in adult subjects” value in data set [1] (approximately 281 adult subjects, various doses, Phase 1 single doses up to 5 mg, repeated up to 4 mg QD) is “safe and well-tolerated”. The “duration of sustained beneficial effects” value in data set [1] (open-label extension study) is “up to 46 weeks”.

Turning to `N=C(N)NCCC[C@H](N)C(=O)O.O=C(O)C[C@H]1CCc2c1[nH]c1ccc(OCc3ccc(C4CCCC4)c(C(F)(F)F)c3)cc21` [Compound 2, 1:1 salt of (R)-2-(7-(4-cyclopentyl-3-(trifluoromethyl)benzyloxy)-1,2,3,4-tetrahydrocyclopenta[b]indol-3-yl)acetic acid with L-arginine], the “Study Drug steady-state plasma exposure measures (Cmax,ss, Cmin,ss, AUCtau,ss)” value in data set [2] is on record as “generally consistent with previous study findings”. Also, the “impact of Study Drug on PD performance of the OC (FSH, LH, estradiol, progesterone, SHBG, TVUS/Hoogland score)” value in data set [3] was “no apparent clinically relevant impact”. The “mean lymphocyte counts relative to mean baseline (Day 23) after discontinuation” value in data set [4] (Day 56, 7 days after discontinuation of study treatment) was 94%. Besides, in data set [4] (Period 2, Study Drug 2 mg qd + OC, Day 49), the “mean lymphocyte count reduction from mean baseline (Day 23)” value is listed as −56.7%. Also, in data set [5] (Days 23 or 49), the “clinically significant abnormalities of 12-lead ECG parameters including PR interval and QT interval” value is “No subject had an ECG with clinically significant abnormalities”. Also, the figures for the “HR lowering effects, continuous Holter ECG recording” value in data set [5] (setting [7]) and in data set [5] (setting [8]) were “typically mild” and “less impacted”, respectively. Also, the entries for the “HR lowering effects, safety 12-lead ECG” value in data set [5] (setting [7]) and in data set [5] (setting [8]) were “typically mild” and “less impacted”, respectively. Also, in data set [5] (conclusion, coadministration with OC), the “safety or tolerability events of concern” value is listed as “No safety or tolerability events of concern”.

Take `C#C[C@]1(O)CC[C@H]2[C@@H]3CCc4cc(O)ccc4[C@H]3CC[C@@]21C` [Ethinylestradiol (EE), ethinylestradiol]: the “change in peak (Cmax,ss) and total (AUCtau,ss) exposure measures when OC coadministered with ETR vs OC alone” value in data set [6] is given as “minor-to-moderate increases”.

Take `C#C[C@]1(O)CC[C@H]2[C@@H]3CCC4=CC(=O)CC[C@@H]4[C@H]3CC[C@@]21CC` [Levonorgestrel (LVG), levonorgestrel]: the “change in peak (Cmax,ss) and total (AUCtau,ss) exposure measures when OC coadministered with ETR vs OC alone” value in data set [6] is “minor-to-moderate increases”.
